Experimental findings from patent US20230056497A1, “CD206 Modulators Their Use and Methods for Preparation” (The United States of America, As Represented by the …, priority 2019, published 2023) are described below.

Where two headings read alike, the source gives them in different places.

Holding throughout (type): cell-based
The subject of assay [1] is M2 macrophages. The assay can be described thus: Anti-cell viability screening: reduction of M2 macrophage cell viability (Percentage Relative Cell Viability versus Log Molar Concentration). As to the method:
Assays were conducted in a 96-well black solid-bottom plate with a final assay volume of 100 μL.

The test system of assay [2] is M2 polarized macrophages with intact CD206 (wild type) versus isogenic M2 polarized macrophages lacking the CD206 receptor. The assay can be described thus: Cell viability in M2 polarized macrophages with intact CD206 versus isogenic macrophages lacking CD206.
The test system of the next assay is murine M2 macrophages. Put plainly: M1 markers in murine M2 macrophages by quantitative flow cytometry. The conditions noted are these: 20 μM for 2 hours.
Assay [3] deals with M2 macrophages. Put plainly: Cancer cell phagocytosis by M1 and M2 macrophages, relative quantitative fluorescence. The conditions noted are these: M2 versus M1 macrophages. An excerpt: FIGS. 14A to 14B illustrate this selectivity towards M2 macrophages.
[4] abbreviates: Macrophage, Table 2, read-out: IC50.
Setting [5] is: Macrophage, figure legends and text, read-out: IC50, macrophage activity (Percentage Relative Cell Viability versus Log Molar Concentration) (converted).

Regarding `O=C(c1cc2ccccc2[nH]1)N1CCc2c(n(Cc3cccnc3)n(CCc3ccccc3)c2=O)C1` [Compound 2], the IC50 in the assay with M2 macrophages [1] (setting [4]) amounted to 4.59 µM. Also, the “M2 Selectivity” value in the assay with M2 macrophages [1] (Table 2) is “Yes”. Also, the “CD206 dependence of macrophage activity” value in assay [2] was “CD206 dependent”. Besides, the “M1 markers (percent positive cell fractions)” value in the assay on murine M2 macrophages is on record as “induction of M1 markers in M2 macrophages”. Regarding `CC(=O)c1c(C)oc2ccc(N(C(=O)Oc3ccccc3)[S+](=O)(O)c3ccccc3)cc12` [Compound 3], in the assay on M2 macrophages [1] (setting [4]), the IC50 stood at 3.88 µM. Also, the “M2 Selectivity” value in the assay with M2 macrophages [1] (Table 2) is “Yes”. Further, the “CD206 dependence of macrophage activity” value in assay [2] is on record as “CD206 dependent”.

On to `O=C(NCCN1CCOCC1)c1ccc(-c2ncc3cnc(-c4ccccc4)cn23)cc1` [Compound 4, N-(2-Morpholinoethyl)-4-(6-phenylimidazo[1,5-a]pyrazin-3-yl)benzamide], for which the IC50 in the assay with M2 macrophages [1] (setting [5]) is 8.95 µM. Same read-out and setting: to `CC(=O)Nc1ccc(NC(=O)c2ccc(-c3ncc4cnc(-c5ccccc5)cn34)cc2)cc1` [Compound 5, N-(4-acetamidophenyl)-4-(6-phenylimidazo[1,5-a]pyrazin-3-yl)benzamide] belongs 7.36 µM; to `O=C(NCCCn1ccnc1)c1ccc(-c2ncc3cnc(-c4ccccc4)cn23)cc1` [Compound 6, N-(3-(1H-imidazol-1-yl)propyl)-4-(6-phenylimidazo[1,5-a]pyrazin-3-yl)benzamide], 3.85 µM; to `CN(C)CCNC(=O)c1ccc(-c2ncc3cnc(-c4ccccc4)cn23)cc1` [Compound 7, N-(2-(dimethylamino)ethyl)-4-(6-phenylimidazo[1,5-a]pyrazin-3-yl)benzamide], 3.13 µM. Take `NC(=O)c1ccc(-c2ncc3cnc(-c4cccc(F)c4)cn23)cc1` [Compound 8, 4-(6-(3-fluorophenyl)imidazo[1,5-a]pyrazin-3-yl)benzamide]: the IC50 in the assay on M2 macrophages [1] (setting [5]) is 0.45 µM. Same read-out and setting: as for `O=C(NCCCO)c1ccc(-c2ncc3cnc(-c4cccc(F)c4)cn23)cc1` [Compound 9, 4-(6-(3-fluorophenyl)imidazo[1,5-a]pyrazin-3-yl)-N-(3-hydroxypropyl)benzamide], the figure is 0.73 µM. For `CC(=O)NCCNC(=O)c1ccc(-c2ncc3cnc(-c4cccc(F)c4)cn23)cc1` [Compound 10, N-(2-acetamidoethyl)-4-(6-(3-fluorophenyl)imidazo[1,5-a]pyrazin-3-yl)benzamide], the IC50 in the assay with M2 macrophages [1] (figure legends and text, read-out: IC50, macrophage activity (Percentage Relative Cell Viability versus Log Molar Concentration) (converted)) was 5.45 µM.

On to `O=C(NCCCN1CCCC1=O)c1ccc(-c2ncc3cnc(-c4ccccc4)cn23)cc1` [Compound 28, N-(3-(2-oxopyrrolidin-1-yl)propyl)-4-(6-phenylimidazo[1,5-a]pyrazin-3-yl)benzamide], for which the cancer cell phagocytosis entry in the assay on M2 macrophages [3] is listed as “increases cancer cell phagocytosis in M2 but not in M1 macrophages”.
